Assay results: PubChem BioAssay (NCI)
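Cells were grown in 96-well plates and exposed to each compound for 48 hours at five concentrations; endpoints were interpolated linearly between bracketing concentrations, or set to the highest concentration if not reached. The concentration for 50% growth inhibition is given as GI50. TGI marks complete inhibition of growth.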

Experiments:
Test in all cases: NCI tumour cell line growth inhibition, 48 h
SR leukemia = tested on: SR leukemia
KM20L2 colon = tested on: KM20L2 colon
DMS 114 small cell lung = tested on: DMS 114 small cell lung
RXF-631 renal = tested on: RXF-631 renal
DMS 273 small cell lung = tested on: DMS 273 small cell lung
LXFL 529 NSCLC = tested on: LXFL 529 NSCLC
XF 498 CNS = tested on: XF 498 CNS
MDA-N = tested on: MDA-N
P388 leukemia = tested on: P388 leukemia
SN12K1 renal = tested on: SN12K1 renal
P388/ADR leukemia = tested on: P388/ADR leukemia

Row | Compound | TGI (SR leukemia) | TGI (KM20L2 colon) | TGI (DMS 114 small cell lung) | TGI (DMS 273 small cell lung) | TGI (XF 498 CNS) | TGI (MDA-N) | also measured
1 | O=C(N/N=C/c1cc(Cl)cc(Cl)c1[O-])c1ccccc1O.O=C(N/N=C/c1cc(Cl)cc(Cl)c1[O-])c1ccccc1O.[Mn+2] | 0.832 µM |  |  |  |  |  | GI50 (KM20L2 colon): 2.78 µM
2 | COc1ccc2[nH]c(=O)cc(C)c2c1[N+](=O)[O-] |  | > 100 µM | > 100 µM | > 100 µM | > 100 µM |  | TGI (RXF-631 renal): > 100 µM; TGI (LXFL 529 NSCLC): > 100 µM
3 | Cc1ccnn1CCc1ccc(Cl)cc1Cl | > 100 µM |  |  |  |  | > 100 µM | 
4 | Nc1nc(N)c2ncn(Cc3ccccc3CO)c2n1 | > 100 µM |  |  |  |  |  | 
5 | CSc1nc2c(ncn2C2OC(CO)C(O)C(O)C2O)c(=O)n1C (stereo not drawn) |  | > 100 µM | > 100 µM | > 100 µM | > 100 µM |  | TGI (P388 leukemia): > 100 µM; TGI (SN12K1 renal): > 100 µM
6 | COc1cccc(/C=N/[N+](C)(C)C)c1O |  |  |  |  |  | > 10 µM | 
7 | O=C1Nc2ccccc2C1(O)Cc1ccccn1 (stereo not drawn) | > 100 µM |  |  |  |  | > 100 µM | 
8 | COc1cc(C2c3cc4c(cc3[C@@H](Nc3cnc5ccccc5c3)C3COC(=O)[C@H]23)OCO4)cc(OC)c1O (stereo partly drawn) |  |  | 1.82 µM | 1.34 µM | 4.66 µM |  | TGI (P388 leukemia): 0.374 µM; TGI (SN12K1 renal): 2.08 µM; TGI (P388/ADR leukemia): 1.36 µM
9 | O=c1c2cc([N+](=O)[O-])ccc2[nH]n1Cc1ccccc1Cl | > 100 µM |  |  |  |  | > 100 µM | 
10 | C=C1C(=O)OC2/C=C(CO)/C=C\C3OC3(C)CC(OC(=O)/C(C)=C/COC(C)=O)C12 (stereo not drawn) | 13.7 µM | 17 µM | 10.9 µM | 4.3 µM | 6.47 µM | 4.13 µM | TGI (RXF-631 renal): 12.1 µM; TGI (LXFL 529 NSCLC): 4.27 µM
11 | COc1cc2c(/C=C3/C(=O)Nc4cc(C)c(O)cc43)c(Cl)[nH]c2cc1C | 2.05 µM |  |  |  |  |  | 
12 | O=C1C=CC2(C=C1)O[C@H](CCc1ccccc1)[C@@H](CCc1ccccc1)O2 | > 100 µM |  |  |  |  | > 100 µM | 
13 | O=C(O)C(C1NCCS1)N1C(=O)c2ccccc2C1=O (stereo not drawn) | > 100 µM |  |  |  |  | > 100 µM | 
14 | CC1=CC2=C(C=O)C(=O)[C@](C)(O)[C@@H](O)C2=CO1 |  |  |  | > 90.2 µM | > 100 µM |  | TGI (P388 leukemia): 35.5 µM; TGI (SN12K1 renal): > 100 µM; TGI (P388/ADR leukemia): 33.8 µM
15 | C=C1C(=O)OC2/C=C(\CO)C3OC3C3OC3(C)CC(OC(=O)/C(=C/C)COC(C)=O)C12 (stereo not drawn) |  | 20.5 µM | 13.2 µM | 10.5 µM | 4.54 µM | 13 µM | TGI (LXFL 529 NSCLC): 2.17 µM
16 | COc1ccc(C(=O)c2[nH]c(Nc3cc(C)ccn3)c(C(=S)Nc3ccccc3)c2N)cc1 | > 100 µM |  |  |  |  | 56.2 µM | 
17 | Cc1c2cnccc2c(C)c2c1c1ccccc1n2CCCCCCCl |  | > 50 µM | > 50 µM | > 50 µM | > 50 µM |  | TGI (P388 leukemia): 32.6 µM; TGI (SN12K1 renal): > 50 µM; TGI (P388/ADR leukemia): > 50 µM
18 | O=C1Sc2sc(=S)sc2SC1c1ccccc1 (stereo not drawn) |  | > 100 µM | > 100 µM | > 100 µM | > 79.1 µM |  | TGI (P388 leukemia): > 67.2 µM; TGI (SN12K1 renal): > 65.2 µM; TGI (P388/ADR leukemia): > 67.7 µM
